Results: US20070060655A1, “Use of agomelatine in obtaining medicaments intended for the treatment of sleep disorders in the depressed patient” (LES LABORATOIRES SERVIER, priority 2005, published 2007)

Assays:
Format in all cases: in vivo, human
[1] = system: sleep disorders in the depressed patient; experiment: double-blind clinical study over 6 weeks in comparison with mirtazapine, polysomnographic recording of sleep; details: 6 weeks of treatment
Excerpt: The action specific to agomelatine on sleep disorders in the depressed patient is established in comparison with mirtazapine. This study, carried out as a double-blind over 6 weeks of treatment, has, as its principal criterion of efficacy, the polysomnographic recording of sleep. The Hamilton Scale of Depression allows the antidepressant efficacy to be documented.

[2] = system: patients with a characterised depressive state; experiment: double-blind clinical study over 6 weeks compared with venlafaxine (Hamilton Scale of Depression, Leeds Sleep Evaluation Questionnaire)
Description: Another study evaluating sleep improvement was carried out in patients with a characterised depressive state as a double blind over 6 weeks compared with venlafaxine. After one week placebo, 332 patients were randomised: 165 received 25 mg/day of agomelatine and 167 received 75 mg/day of venlafaxine for 2 weeks. After 2 weeks of treatment, if clinical improvements obtained were found insufficient, the doses for some patients were doubled to 50 mg/day of agomelatine or 150 mg/day of venlafaxine for the following weeks.

[3] = system: patients with a characterised depressive state; experiment: pilot study of sleep polysomnographic parameters in 15 patients; details: agomelatine 25 mg; polysomnography
Description: Lastly, effects of agomelatine on the sleep polysomnographic parameters were evaluated in a pilot study carried out in 15 patients with a characterised depressive state. […] Furthermore, agomelatine increase the total duration of sleep, reduce the number of nocturnal wakenings, and as a consequence improve sleep efficacy.

[4] = versus venlafaxine, p less than or equal to 0.001

In the case of `COc1ccc2cccc(CCNC(C)=O)c2c1` [agomelatine, N-[2-(7-methoxy-1-naphthyl)ethyl]acetamide], the “efficacy in the treatment of sleep disorders in the depressed patient (polysomnographic recording of sleep)” value [1] is reported as “especially effective”, the “antidepressant efficacy (Hamilton Scale of Depression)” value ([2]; agomelatine 25 mg/day (up to 50 mg/day) versus venlafaxine 75 mg/day (up to 150 mg/day), 6 weeks) is reported as “comparable efficacy of agomelatine versus venlafaxine” and the “"sensation of well-being"” value [2, 4] is reported as “equally significant improvement”. For the same compound, the “"sleepiness during the day"” value [2, 4] was “equally significant improvement”, the “LSEQ item "quality of sleep" (QOS)” value ([2]; versus venlafaxine, p=0.015) was “appreciably greater efficacy” and the “LSEQ item "ease of getting to sleep" (GTS)” value ([2]; versus venlafaxine, significant difference from the first week (p=0.007), continuing during the 6 weeks) was “more important and faster to appear than for venlafaxine”. The “REM (rapid eye movements) sleep” value [3] was “without alteration”, the “absolute and relative durations of cycles 3 and 4 of the recording of the electroencephalographic activity” value [3] was “significantly improved” and the “number of nocturnal wakenings” value [3] was “reduce”. The “onset of the beneficial effects on sleep” value [3] was “from the first week of treatment”, the sleep efficacy [3] was “improve” and the sleep physiological structure [3] was “Restoration of the sleep physiological structure was observed”. For the same compound, the “total duration of sleep” value [3] was “increase”.
